Test results published in the NIST ThermoML archive (doi:10.1021/je700321s).
Numbers after ± are expanded uncertainties.

Experiment: xn = mol fraction of the nth substance listed
Details: Liquid, Vibrating tube method

CC(C)O [propan-2-ol] + O=C=O
Details | mass density [kg/m3]
323.05 K, 7910 kPa, x2 = 0.6086 | 781.7 ± 1.5
323.05 K, 8002 kPa, x2 = 0.139 | 777.6 ± 0.8
323.05 K, 8009 kPa, x2 = 0.6086 | 782.2 ± 1.6
323.05 K, 8208 kPa, x2 = 0.6086 | 783.1 ± 0.8
323.05 K, 8404 kPa, x2 = 0.6086 | 784.1 ± 0.8
323.05 K, 8527 kPa, x2 = 0.139 | 778.3 ± 0.8
323.05 K, 8528 kPa, x2 = 0.9715 | 303.9 ± 1.8
323.05 K, 8607 kPa, x2 = 0.6086 | 785 ± 0.8
323.05 K, 8800 kPa, x2 = 0.6086 | 785.8 ± 0.8
323.05 K, 9004 kPa, x2 = 0.6086 | 786.7 ± 0.8
323.05 K, 9031 kPa, x2 = 0.9715 | 381.9 ± 2.7
323.05 K, 9033 kPa, x2 = 0.139 | 778.8 ± 0.8
323.05 K, 9107 kPa, x2 = 0.9492 | 526.2 ± 2.6
323.05 K, 9301 kPa, x2 = 0.6086 | 788 ± 0.8
323.05 K, 9400 kPa, x2 = 0.9492 | 575.3 ± 2.3
323.05 K, 9501 kPa, x2 = 0.6086 | 788.9 ± 0.8
323.05 K, 9519 kPa, x2 = 0.139 | 779.4 ± 0.8
323.05 K, 9535 kPa, x2 = 0.9715 | 467.3 ± 2.8
323.05 K, 9702 kPa, x2 = 0.6086 | 789.8 ± 0.8
323.05 K, 9710 kPa, x2 = 0.9492 | 607 ± 1.1
323.05 K, 9805 kPa, x2 = 0.6086 | 790.2 ± 0.8
323.05 K, 10015 kPa, x2 = 0.9492 | 628.2 ± 1.7
323.05 K, 10046 kPa, x2 = 0.9715 | 540 ± 2.1
323.05 K, 10301 kPa, x2 = 0.9492 | 644.3 ± 0.9
323.05 K, 10501 kPa, x2 = 0.9715 | 577.6 ± 1.6
323.05 K, 10600 kPa, x2 = 0.9492 | 658.2 ± 1.4
323.05 K, 10904 kPa, x2 = 0.9492 | 670.3 ± 1.3
323.05 K, 11011 kPa, x2 = 0.9715 | 612.9 ± 1.5
323.05 K, 11211 kPa, x2 = 0.9492 | 681.1 ± 1.3
323.05 K, 11508 kPa, x2 = 0.9492 | 689.9 ± 1.3
323.05 K, 11512 kPa, x2 = 0.9715 | 638.9 ± 1.3
323.05 K, 11807 kPa, x2 = 0.9492 | 698.3 ± 1.2
323.05 K, 12028 kPa, x2 = 0.9715 | 660.4 ± 1.2
323.05 K, 12106 kPa, x2 = 0.9492 | 705.9 ± 1.1
323.05 K, 12404 kPa, x2 = 0.9492 | 712.6 ± 1.1
323.05 K, 12516 kPa, x2 = 0.9715 | 677 ± 1.1
323.05 K, 12703 kPa, x2 = 0.9492 | 719.2 ± 1.1
323.05 K, 13006 kPa, x2 = 0.9492 | 725.5 ± 1
323.05 K, 13014 kPa, x2 = 0.9715 | 691.5 ± 1
323.05 K, 13309 kPa, x2 = 0.9492 | 731.4 ± 1
323.05 K, 13558 kPa, x2 = 0.9715 | 705.3 ± 1
323.05 K, 13608 kPa, x2 = 0.9492 | 736.7 ± 1
323.05 K, 13907 kPa, x2 = 0.9492 | 742 ± 1
323.05 K, 14003 kPa, x2 = 0.9715 | 715.4 ± 1
323.05 K, 14210 kPa, x2 = 0.9492 | 746.8 ± 1
323.05 K, 14504 kPa, x2 = 0.9492 | 751.1 ± 0.9
323.05 K, 14516 kPa, x2 = 0.9715 | 725.9 ± 1
323.05 K, 14804 kPa, x2 = 0.9492 | 755.1 ± 0.9
323.05 K, 15024 kPa, x2 = 0.9715 | 735.4 ± 0.9
323.05 K, 15506 kPa, x2 = 0.9715 | 743.6 ± 0.8
323.06 K, 8724 kPa, x2 = 0.7943 | 745.3 ± 2
323.06 K, 8802 kPa, x2 = 0.7943 | 746.6 ± 1.8
323.06 K, 8905 kPa, x2 = 0.7943 | 747.9 ± 1.8
323.06 K, 9005 kPa, x2 = 0.7943 | 749.2 ± 0.9
323.06 K, 9204 kPa, x2 = 0.7943 | 751.6 ± 0.9
323.06 K, 9410 kPa, x2 = 0.7943 | 753.9 ± 0.8
323.06 K, 9606 kPa, x2 = 0.7943 | 756.2 ± 0.9
323.06 K, 9792 kPa, x2 = 0.7943 | 758.2 ± 0.9
323.06 K, 10001 kPa, x2 = 0.7943 | 760.2 ± 0.9
323.06 K, 10310 kPa, x2 = 0.7943 | 763.1 ± 0.9
323.07 K, 4004 kPa, x2 = 0.2003 | 775.4 ± 0.8
323.07 K, 4307 kPa, x2 = 0.2003 | 775.8 ± 0.8
323.07 K, 4497 kPa, x2 = 0.2003 | 776.1 ± 0.8
323.07 K, 4802 kPa, x2 = 0.2003 | 776.6 ± 0.8
323.07 K, 5014 kPa, x2 = 0.2003 | 776.9 ± 0.8
323.07 K, 5510 kPa, x2 = 0.2003 | 777.5 ± 0.8
323.07 K, 6029 kPa, x2 = 0.2003 | 778.3 ± 0.8
323.07 K, 6513 kPa, x2 = 0.2003 | 779 ± 0.8
323.07 K, 7000 kPa, x2 = 0.2003 | 779.7 ± 0.8
323.07 K, 7519 kPa, x2 = 0.2003 | 780.5 ± 0.8
323.07 K, 8013 kPa, x2 = 0.2003 | 781.1 ± 0.8
323.07 K, 8543 kPa, x2 = 0.2003 | 781.8 ± 0.8
323.07 K, 9139 kPa, x2 = 0.2003 | 782.5 ± 0.8
323.07 K, 9497 kPa, x2 = 0.2003 | 783 ± 0.8
323.07 K, 10068 kPa, x2 = 0.2003 | 783.8 ± 0.8
332.97 K, 9739 kPa, x2 = 0.7943 | 686.8 ± 0.8
332.97 K, 9804 kPa, x2 = 0.7943 | 689.2 ± 1.1
332.97 K, 9901 kPa, x2 = 0.7943 | 691.4 ± 1.2
332.97 K, 10001 kPa, x2 = 0.7943 | 693.5 ± 1.4
332.97 K, 10101 kPa, x2 = 0.7943 | 695.6 ± 1.6
332.97 K, 10201 kPa, x2 = 0.7943 | 697.8 ± 1.9
332.97 K, 10302 kPa, x2 = 0.7943 | 699.9 ± 2.1
332.97 K, 10404 kPa, x2 = 0.7943 | 701.7 ± 1
332.97 K, 10507 kPa, x2 = 0.7943 | 703.7 ± 1.5
332.97 K, 10606 kPa, x2 = 0.7943 | 705.4 ± 1.8
332.97 K, 10808 kPa, x2 = 0.7943 | 708.9 ± 1.3
332.97 K, 11007 kPa, x2 = 0.7943 | 712 ± 1
332.97 K, 11204 kPa, x2 = 0.7943 | 715 ± 0.9
332.97 K, 11404 kPa, x2 = 0.7943 | 717.8 ± 0.9
332.97 K, 11607 kPa, x2 = 0.7943 | 720.5 ± 0.9
332.97 K, 11805 kPa, x2 = 0.7943 | 722.9 ± 0.9
332.97 K, 12004 kPa, x2 = 0.7943 | 725.3 ± 0.8
332.99 K, 2861 kPa, x2 = 0.139 | 759.8 ± 0.8
332.99 K, 3000 kPa, x2 = 0.139 | 760 ± 0.8
332.99 K, 3297 kPa, x2 = 0.139 | 760.4 ± 0.8
332.99 K, 3495 kPa, x2 = 0.139 | 760.7 ± 0.8
332.99 K, 4008 kPa, x2 = 0.139 | 761.5 ± 0.8
332.99 K, 4509 kPa, x2 = 0.139 | 762.2 ± 0.8
332.99 K, 5030 kPa, x2 = 0.139 | 762.8 ± 0.8
332.99 K, 6502 kPa, x2 = 0.139 | 764.9 ± 0.8
332.99 K, 7005 kPa, x2 = 0.139 | 765.6 ± 0.8
332.99 K, 7501 kPa, x2 = 0.139 | 766.3 ± 0.8
332.99 K, 8010 kPa, x2 = 0.139 | 766.9 ± 0.8
332.99 K, 8521 kPa, x2 = 0.139 | 767.6 ± 0.8
332.99 K, 9040 kPa, x2 = 0.139 | 768.3 ± 0.8
332.99 K, 9511 kPa, x2 = 0.139 | 768.8 ± 0.8
332.99 K, 9974 kPa, x2 = 0.139 | 769.5 ± 0.8
332.99 K, 10561 kPa, x2 = 0.9492 | 502.4 ± 1.2
332.99 K, 10601 kPa, x2 = 0.9492 | 506.6 ± 1.2
332.99 K, 10709 kPa, x2 = 0.9492 | 517.4 ± 1.1
332.99 K, 10810 kPa, x2 = 0.9492 | 526.9 ± 1
332.99 K, 10910 kPa, x2 = 0.9492 | 536.2 ± 1
332.99 K, 11209 kPa, x2 = 0.9492 | 560.9 ± 1
332.99 K, 11503 kPa, x2 = 0.9492 | 580 ± 1
332.99 K, 11803 kPa, x2 = 0.9492 | 596 ± 0.9
332.99 K, 12102 kPa, x2 = 0.9492 | 611.4 ± 0.9
332.99 K, 12404 kPa, x2 = 0.9492 | 624.7 ± 0.9
332.99 K, 12705 kPa, x2 = 0.9492 | 635.9 ± 0.9
332.99 K, 13010 kPa, x2 = 0.9492 | 645.6 ± 0.9
332.99 K, 13302 kPa, x2 = 0.9492 | 654.5 ± 0.9
332.99 K, 13603 kPa, x2 = 0.9492 | 663.6 ± 0.9
332.99 K, 13906 kPa, x2 = 0.9492 | 671.7 ± 0.9
332.99 K, 14213 kPa, x2 = 0.9492 | 678.9 ± 0.9
332.99 K, 14513 kPa, x2 = 0.9492 | 684.7 ± 0.8
333.02 K, 7301 kPa, x2 = 0.4248 | 770.1 ± 0.8
333.02 K, 7408 kPa, x2 = 0.4248 | 770.5 ± 0.8
333.02 K, 7506 kPa, x2 = 0.4248 | 770.6 ± 0.8
333.02 K, 7613 kPa, x2 = 0.4248 | 771 ± 0.8
333.02 K, 7806 kPa, x2 = 0.4248 | 771.4 ± 0.8
333.02 K, 8005 kPa, x2 = 0.4248 | 772 ± 0.8
333.02 K, 8209 kPa, x2 = 0.4248 | 772.6 ± 0.8
333.02 K, 8226 kPa, x2 = 0.6086 | 753.6 ± 0.8
